pEC50: −log10 of the molar value.

The values that follow come from patent US20180271853A1, “Method of Use for Inhibitors of Epidermal Growth Factor Receptor Variant III” (METASTAT, INC., priority 2015, published 2018).

Experiment [1] concerns the target T1, phosphoY1173-EGFRviii expressed in U87MG tumor cells (Homo sapiens, UniProt P00533, DELINS30-297G).
T1 construct: expressed in transfected cells; host or cells: U87MG (ATCC), lentiviral infection, puromycin selection
The experiment in a line: Inhibition of phosphoY1173-EGFRviii in U87MG tumor cells engineered to express EGFR-viii (in-cell ELISA). The note with it: for activity against EGFR-viii: FIG. 1. It counts as cell-based.
Experimental: Cells stably expressing EGFR-WT or EGFR-viii were maintained in the presence of 0.5 ug/ml puromycin.
All EGFR inhibitors were purchased from Selleck Chemicals, Houston TX, at a concentration of 10 mM in DMSO. […] Serial dilution of compounds was prepared using DMSO at 100× the final concentration indicated and then diluted in cell media to the final concentration indicated.
Data are expressed as EC50 and were determined using an in-cell ELISA kit (Pierce).

Experiment [2] relates to tumors expressing EGFR-viii. The conditions noted are these: cited from earlier work; for benefit for GBM in clinical studies: clinical studies evaluating reversible or covalent EGFR inhibitors in GBM.
Another experiment addresses EGFR-viii (Homo sapiens, UniProt P00533, DELINS30-297G). The note with it: Ji, Zhao et al., 2006; Vivanco, Robins et al., 2012; cited from earlier work.

On to `C=CC(=O)Nc1ccc2ncnc(Nc3ccc(OCc4cccc(F)c4)c(Cl)c3)c2c1` [AST-1306], for which the negative logarithm of the EC50 (pEC50) in experiment [1] (in-cell ELISA, FIG. 1, read-out: EC50 against EGFR-viii) was greater than 7.30.
In the case of `C#Cc1cccc(Nc2ncnc3cc(OCCOC)c(OCCOC)cc23)c1` [erlotinib], the “benefit for GBM in clinical studies” value in experiment [2] is reported as “failed to demonstrate significant benefit”.
With `C=CC(=O)Nc1cccc(Sc2nc(Nc3ccc(N4CCN(C)CC4)cc3)ncc2Cl)c1` [WZ8040], the “activity against EGFR-viii” value in experiment [1] is “weak activity”.
Regarding `COc1cc2ncnc(Nc3ccc(F)c(Cl)c3)c2cc1NC(=O)/C=C/CN1CCCCC1` [dacomitinib], the “inhibition of EGFR-viii (recent studies)” value at EGFR-viii is reported as “potent inhibitors of EGFR-viii”.
On to `C=CC(=O)Nc1cccc(Nc2nc(Nc3ccc(N4CCN(C(C)=O)CC4)cc3OC)ncc2C(F)(F)F)c1` [CO-1686], for which, in experiment [1], the “activity against EGFR-viii” value was “weak activity”.
Consider `C=CC(=O)Nc1cccc(Oc2nc(Nc3ccc(N4CCN(C)CC4)cc3)ncc2Cl)c1` [WZ3146], for which the “activity against EGFR-viii” value in experiment [1] is recorded as “weak activity”.
Consider `CS(=O)(=O)CCNCc1ccc(-c2ccc3ncnc(Nc4ccc(OCc5cccc(F)c5)c(Cl)c4)c3c2)o1` [lapatinib], for which the “benefit for GBM in clinical studies” value in experiment [2] was “failed to demonstrate significant benefit”. Further, the “cancer growth inhibition in clinical studies” value in experiment [2] (clinical studies, GBM) was “insignificant cancer growth inhibition”.

By pEC50 is commonly meant the EC50 on a negative log10 scale, so that one unit is a factor of ten.
